Test results from publication PMC9685055, “Biological activity of new bioactive steroids deriving from biotransformation of cortisone” (Microbial Cell Factories, 2022).

Tests used:
[1] = target: T1, human glucocorticoid receptor (NR3C1) (Homo sapiens, UniProt P04150); test: Glucocorticoid receptor transactivation reporter assay; type: cell-based; details: 10 µM, 24 h, luciferase reporter cells
T1 construct: constitutive high-level expression of full length, unmodified human glucocorticoid receptor (NR3C1)
T1 sequence (P04150 1-777): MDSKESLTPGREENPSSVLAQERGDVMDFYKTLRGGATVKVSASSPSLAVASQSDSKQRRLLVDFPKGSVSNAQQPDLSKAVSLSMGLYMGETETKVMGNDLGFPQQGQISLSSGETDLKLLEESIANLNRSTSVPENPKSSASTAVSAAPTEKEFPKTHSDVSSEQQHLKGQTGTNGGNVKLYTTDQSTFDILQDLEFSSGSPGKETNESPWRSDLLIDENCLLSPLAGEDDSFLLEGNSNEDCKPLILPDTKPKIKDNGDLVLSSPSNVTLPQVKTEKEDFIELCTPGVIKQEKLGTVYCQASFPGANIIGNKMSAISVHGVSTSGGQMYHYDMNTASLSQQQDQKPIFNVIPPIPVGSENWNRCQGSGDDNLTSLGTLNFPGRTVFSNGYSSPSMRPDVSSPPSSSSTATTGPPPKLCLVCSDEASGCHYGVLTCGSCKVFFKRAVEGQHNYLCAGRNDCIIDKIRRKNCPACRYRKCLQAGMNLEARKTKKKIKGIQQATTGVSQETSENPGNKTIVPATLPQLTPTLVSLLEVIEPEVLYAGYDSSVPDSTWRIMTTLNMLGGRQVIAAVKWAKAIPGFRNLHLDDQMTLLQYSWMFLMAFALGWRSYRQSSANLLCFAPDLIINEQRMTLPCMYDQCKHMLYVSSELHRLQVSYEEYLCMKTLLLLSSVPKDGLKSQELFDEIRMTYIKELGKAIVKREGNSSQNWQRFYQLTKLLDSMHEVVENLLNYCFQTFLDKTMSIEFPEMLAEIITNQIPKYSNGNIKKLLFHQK
Description: Glucocorticoid receptor transactivation assays kit was obtained from Indigo Biosciences (Human Glucocorticoid Receptor Reporter Assay Kit, Product #IB0020-32; Indigo Biosciences, State College, PA, USA) and was utilized to assess the activation of human glucocorticoid receptor by SCA and/or SCB. Briefly, stocks of the tested compounds were prepared and diluted in a medium provided by the manufacturer. Frozen reporter cells provided in the assay kit were thawed and compound dilutions were added immediately. Cells were incubated for 24 h and the activation response was measured on a luminometer (Perkin-Elmer, MA, USA). The cells consisted of non-human mammalian cells engineered by Indigo Biosciences to provide constitutive high-level expression of full length, unmodified human glucocorticoid receptor (NR3C1). The nonhuman mammalian reporter cells included a luciferase reporter gene functionally linked to a human glucocorticoid receptor-responsive promoter. The cells are engineered so that only interactions with the human receptor will induce luciferase expression in the treated reporter cells to quantitate nuclear receptor activation. Positive control ligand performance was measured by the manufacturer and provided in the technical manuals thus allowing accurate comparison for assay performance. […]

[2] = system: p65 NF-κB nuclear translocation in HaCaT cells; test: TNFα-induced p65 NF-κB nuclear translocation, immunofluorescence; type: cell-based; details: 10 μM pretreatment 24 h, then 10 ng/mL TNFα 1 h
Description: HaCaT cells were cultured with Dulbecco’s modified Eagle’s medium High Glucose (Lonza, Milan, Italy) supplemented with 10% FBS, 100 U/mL penicillin, 100 μg/mL streptomycin and 2 mM L-glutamine as previously described. Cells were maintained in a humidified incubator at 37 °C with 5% CO2 and incubated until the monolayer was 80% confluent. Medium was changed every 2 days.
HaCaT cells were pretreated with or without 10 μM of both SCA and SCB for 24 h. Stock solutions of the two compounds were prepared in DMSO immediately before use and diluted to the final concentration in the culture medium. In some sets of experiments, betamethasone-17-valerate (10 µg/mL) served as a positive control; dimethyl sulfoxide (DMSO) served as a solvent control. After the pretreatments, cells were stimulated with 10 ng/mL TNFα for 1 h to induce the NFκB signaling pathway. Then, media were replaced with fresh culture medium. Cells and supernatants were collected at different time points for each set of experiments as described below.
Briefly, HaCaT cells were seeded on coverslips at a density of 1 × 10^5 cell/mL and incubated with DMEM high glucose supplemented with FBS 10%. Then, HaCaT cells were treated as indicated above. At the end of the proinflammatory stimulus with TNFα, cells were fixed in 4% paraformaldehyde in PBS for 30 min at 4 °C as previously described. HaCaT cells were permeabilized for 5 min at RT with PBS containing 0.2% Triton X-100. After the blocking with 1% BSA in PBS at RT for 1 h, HaCaT cells were incubated with p65 NF-κB primary antibody (1:100, sc-372; Santa Cruz Biotechnology, Inc., Dallas, Texas, USA) in PBS containing 0.5% BSA at 4 °C overnight. After washing, coverslips were incubated with appropriate secondary antibody for 1 h at RT. Nuclei were stained with 1 μg/mL DAPI (Sigma- Aldrich, Italy) for 1 min. […] Fluorescence was examined using an Epifluorescence microscope (Nikon Eclipse E800; Nikon Corporation, Surrey, UK) equipped with a plan apochromat 100 × 0.5 − 1.3 oil immersion objective and a mercury lamp source.

Structure (SMILES) | glucocorticoid receptor activation [1] | effect on TNFα-stimulated translocation of p65 to the nucleus [2]
Cc1ccc(O)c2c1CCC1C3CC[C@](O)([C@H](O)CO)[C@@]3(C)CC(=O)[C@@]21O (stereo partly drawn) [SCB, 1,9β,17,20β,21‐ pentahydoxy‐4‐methyl‐19‐nor‐9β‐pregna‐1,3,5(10)‐trien‐11‐one] | activated glucocorticoid receptors | showed the ability in counteracting the proinflammatory stimulus
Cc1ccc(O)c2c1CCC1C3CC[C@](O)(C(=O)CO)[C@@]3(C)CC(=O)[C@@]21O (stereo partly drawn) [SCA, 1,9β,17,21‐tetrahydoxy‐4‐methyl‐19‐nor‐9β‐pregna‐1,3,5(10)‐trien‐11,20‐dione] | activated glucocorticoid receptors | barely affected
